Assays:
[1] = target: histone deacetylase (chicken liver S100 lysate); test: Competitive binding assay with 3H-N-desmethoxyapicidin, chick liver S100 lysate; conditions: for IC50: displacement of 3H-N-desmethoxyapicidin, chick liver S100
Procedure: Chick Liver. Livers from 3-5 three week old chickens are collected, rinsed in ice cold phosphate buffered saline (pH 7.4), diced into small pieces and rinsed again 3-4 times with ice cold 50 mM N-2-hydroxyethylpiperazine-N'-2-ethanesulfonic acid (HEPES) (pH 7.4) containing 0.1 mM phenylmethanesulfonyl fluoride (PMSF). The tissue is then resuspended in HEPES buffer, homogenized in a polytron homogenizer and centrifuged at 3000×g for 10 min. The supernatant is then subjected to an additional 100,000 g centifugation for 1 hour. The pellet and the floating layer of lipid are discarded and the supernatant, referred to as the chick liver S100 fraction, is retained for binding assays. After estimating the protein concentration, the supernatant (S100) is aliquoted and frozen at -80° C.
(§1) Each assay tube contains a final volume of 1 ml with 1.3 ng/ml of ^3 H-N-desmethoxyapicidin, 150-200 μg of the appropriate S100 supernatant and concentrations of potential HDA inhibitors from 0.001-10 μg/ml.
(§2) (i) labeled substrate. 2-^3 H-N-desmethoxyapicidin (18.69 mCi/mg) is diluted 1:100 in ethanol, and 2 μl added per 1 ml of 50 mM HEPES pH 7.4 with 0.05% Triton®-X100 (HEPES/Triton) is added. This provides 1.3 ng 2-^3 H-N-desmethoxyapicidin /ml of assay (54,000 DPM/ml.)
(§3) (ii) potential HDA inhibitors. The stocks of the test compounds are made up to 2 mg/ml dimethylsulfoxide (DMSO). The stock solution is diluted to 1000, 100, 10, 1 and 0.1 μg/ml in ethanol where a full titration is required. Ethanol is used as a negative control, a 100 μg/ml solution of unlabeled N-desmethoxyapicidin is used as a positive control. Six μl of the test compound solution, the positive and negative controls are used for the assay.
(§4) (iii) supernatant from (a). The S100 sample is diluted to a concentration of 3.0 mg protein/ml (chick liver) or 4 mg protein/ml (parasite) in the HEPES/Triton® buffer. Fifty μl is used for the assay.
(§5) Stock solutions of potential HDA inhibitors (ii) are diluted into 50 mM HEPES/Triton® buffer to achieve a final concentration of test compound in the range of […]. ^3 H-N-desmethoxyapicidin is added to a final concentration of 1.3 ng/ml. 50 μl of parasite or chick liver S100 solution (150-200 μg) is added to each tube. The assay mixture is incubated for 1 hr at 25° C. and then aspirated through Whatman GF/B filters impregnated with polyethylenimine (filters prepared in advance by soaking in 2 ml of polyethylenimine per 330 mls water at room temp for 1 hour). Assay tubes were rinsed 3 times with 1-2 mls of HEPES/Triton® and aspirated through the same filter. The filter is then dried and counted in scintillant.

[2] = tested on: histone deacetylase (E. tenella oocyst S100 lysate); test: Competitive binding assay with 3H-N-desmethoxyapicidin, E. tenella S100 lysate; conditions: for selectivity for E. tenella over chicken liver lysate in binding assay: E. tenella versus host (chicken liver) lysate
Procedure: E. tenella oocysts. Approximately 2×10^9 E. Tenella oocysts are suspended in 5 ml of PBS/0.1 mM PMSF, 4 mls of an equal mixture (vol/vol) of 4.0 and 1.0 mm glass beads is added. The glass bead-oocyst mixture is then shaken for 20 minutes to cause disruption of the oocysts. The efficiency of breakage is checked microscopically. The resulting homogenate is separated from the glass beads and centrifuged at 3000×g for 10 min. The supernatant is then subjected to an additional centrifugation at 100,000 g for 1 hr. The pellet is discarded and the supernatant, referred to as the E. Tenella S100 fraction, is retained for binding assays. After estimating the protein concentration, the supernatant (S100) is aliquoted and frozen at -80° C.
as §1, §2, §3, §4, §5

HeLa cell histones = test: Histone acetylation state in HeLa cells (AUT gel electrophoresis); type: cell-based, human; conditions: HeLa cells treated 4 hrs, FIG. 1, relative to untreated cells
Procedure: About 2×10^7 HeLa cells growing at 37 C were treated with various compounds in the standard tissue culture medium (MEM containing 10% fetal calf serum) for 4 hrs. Cells were then removed from the flask by scraping in PBS in a total volume of about 10 mls. The cells were washed twice in PBS and resuspended in about 3 mls lysis buffer (Lysis buffer; 0.45% Nonidet® P-40, 10 mM tris, 10 mM NaCl, 5 mM MgCl, 0.1 mM EGTA, 0.1 mM PMSF). The suspension was mixed by vortexing for 10 seconds, incubated on ice for 15 minutes and nuclei were pelleted by centrifugation through a 1 ml cushion of 30% sucrose in lysis buffer at 1300×g for 10 minutes. The supernatant was discarded and the nuclei were then resuspended in 1.0 ml water. H2 SO4 was added to a final concentration of 0.4M and the nuclear suspension was incubated on ice for 30 min. and then pelleted by centrifugation at 13,000×g for 10 miunutes. […]
Acid urea triton (AUT) polyacrylarnide gels were performed according to the methods of Alfageme et al (1974) J. Biol. Chem. 249, 3729, with modifications as described in Lennox and Cohen (Methods in Enzymology, 170, 532-549). […] Gels were either stained with Coomassie Brilliant Blue R in 7% acetic acid, 20% methanol and then destained in 7% acetic acid and 20% methanol, or treated with Enlightening (from New England Nuclear), dried and radiolabel detected by fluorography.

P. falciparum histones = test: Histone acetylation state in P. falciparum (14C acetate labeling, AUT gel); type: cell-based, Plasmodium falciparum; conditions: infected red blood cells, 14C sodium acetate, 2 hours, FIG. 2
Procedure: Acid urea triton (AUT) polyacrylarnide gels were performed according to the methods of Alfageme et al (1974) J. Biol. Chem. 249, 3729, with modifications as described in Lennox and Cohen (Methods in Enzymology, 170, 532-549). For optimal resolution of HeLa cell and Plasmodium falciparum histones the separation gel contained 7.5M urea, 12% acrylamide, 0.38% Triton® X 100, 0.08% bis acrylamide, and 0.87M acetic acid. The loading gels contained 7.5M urea, 0.37% Triton® X 100, 6% acrylamide, 0.04% bis acrylamide and 0.87M acetic acid. Gels were run in 1M acetic acid. Gels were pre-electrophoresed at 350V for 1 hour and run at 450 V for 3.5 hours. Gels were either stained with Coomassie Brilliant Blue R in 7% acetic acid, 20% methanol and then destained in 7% acetic acid and 20% methanol, or treated with Enlightening (from New England Nuclear), dried and radiolabel detected by fluorography.
Approximately 1×10^9 P. falciparum infected red blood cells (about 60% parasitized) were resuspended in 10 ml of RPMI 1640 containing various concentrations of test compounds and 250 μCi^14 C sodium acetate and incubated at 37° C. for 2 hours. The cells were then washed 3 time with PBS and histones were prepared as described below.
Histones were prepared according to the method of Cary et al (1994) Parasitology Research, 80, 255-258. […]

[3] = tested on: histone deacetylase (chicken liver extracts); test: Histone deacetylase inhibition assay (Assay 1), chicken liver extract; type: biochemical
Procedure: (§6) The standard assay contained in a total volume of 40 μL: 400 nmol HEPES-sodium, pH 7.4, 100 pmol of the substrate [AcGly-Ala-Lys(ε-^14 C-Ac)-Arg-His-Arg-Lys(ε-^14 C-Ac)-ValNH2 ] (see Kervabon et al (1979) FEBS Letters 106: 93-96) having a specific activity of approx. 114 mCi/mmol, and a source of histone deacetylase (HDAase) activity. The amount of HDAase added was chosen such that ≤20% of the substrate was consumed during the assay. The reaction was initiated by enzyme addition and allowed to proceed for 60 min at 41°. At 60 min, the reaction was terminated by the addition of a 50% slurry of Amberlite AG 50 W×4 cation exchange resin, sodium form (200-400 mesh) in 25 mM sodium acetate buffer, pH 4.2 (200 μL). The resin binds both remaining substrate and the (partially) deacetylated peptidyl products. The quenched reaction was then incubated for at least 30 min at 25° with occassional mixing, diluted with additional 25 mM sodium acetate buffer, pH 4.2 (760 μL; final volume 1000 μL), incubated for a minimum of an additional 30 min at 25° with occassional mixing, and then centrifuged at 10,000×g for 1 min. An aliquot of the supernatant (800 μL) containing the enzymatically released ^14 C-acetate was removed, mixed with Aquasol 2 liquid scintillation counter (LSC) cocktail (10 mL), and counted in a Beckman model LS-5801 LSC. […]

P. falciparum = test: In vitro antiparasitic activity against P. falciparum; type: cell-based, Plasmodium falciparum
Excerpt: ^(2) Generally following the procedure described in Desjardins et al, "Quantitative Assessment of Antimalarial Activity In Vitro by a Semiautomated Microdilution Technique" Antimicrobial Agents and Chemotherapy, 1979, 16:710-718.

[4] = tested on: Eimeria HDAase (histone deacetylase); test: Histone deacetylase inhibition assay (Assay 1), E. tenella extract; type: biochemical, Eimeria tenella
Procedure: as §6

E. tenella = test: In vitro antiparasitic activity against E. tenella; type: cell-based, Eimeria tenella
Excerpt: ^(1) Generally following the procedure described in Crane, Schmatz, Stevens, Habbersett and Murray. Eimeria tenella: in vitro development in irradiated bovine kidney cells.(1984) Parasitology 88: 521-530.

IC50 [1] [nM] | selectivity for E. tenella over chicken liver lysate in binding assay [2] | Compound | hyperacetylation of HeLa cell histones (shift in histone gel profile) (HeLa cell histones) | hyperacetylation of P. falciparum histones (P. falciparum histones) | also measured
> 1000 | selective | CCC(=O)CCCCC[C@@H]1NC(=O)[C@H]2CCCCN2C(=O)[C@H](C(C)CC)NC(=O)[C@H](c2cn(OC)c3ccccc3c2=O)NC1=O (stereo partly shown) [Compound IIA] |  |  | 
> 1000 | selective | CCC(=O)CCCCC[C@@H]1NC(=O)[C@H]2CCCCN2C(=O)[C@H](C(C)CC)NC(=O)[C@H](c2c[nH]c3ccccc3c2=O)NC1=O (stereo partly shown) [Compound IIB] |  |  | 
 |  | CCC(=O)CCCCC[C@@H]1NC(=O)[C@H]2CCCCN2C(=O)[C@H]([C@@H](C)CC)NC(=O)[C@H](Cc2cn(OC)c3ccccc23)NC1=O [Compound Ia, Apicidin] | cause a distinct shift in the histone gel profiles | cause hyperacetylation | 
 |  | CC(/C=C/C(=O)NO)=C\[C@@H](C)C(=O)c1ccc(N(C)C)cc1 [trichostatin] | cause a distinct shift in the histone gel profiles | cause hyperacetylation | 

Compound | IC50 [1] [nM] | selectivity for E. tenella over chicken liver lysate in binding assay [2] | hyperacetylation of HeLa cell histones (shift in histone gel profile) (HeLa cell histones) | hyperacetylation of P. falciparum histones (P. falciparum histones) | also measured
CC(/C=C/C(=O)O)=C\[C@@H](C)C(=O)c1ccc(N(C)C)cc1 [trichostatic acid] | > 1000 |  |  |  | activity in binding assay (in words), chicken liver lysate [1]: no activity; activity in binding assay (in words), E. tenella lysate [2]: no activity; IC50 ([2]; displacement of 3H-N-desmethoxyapicidin, E. tenella S100): > 1000 nM; activity in enzyme inhibition assay (in words), chicken liver extract [3]: inactive; activity against P. falciparum (in words) (P. falciparum): not active; activity in enzyme inhibition assay (in words), E. tenella extract [4]: inactive; activity against E. tenella (in words) (E. tenella): not active

— patent US6068987A, “Histone deacetylase as target for antiprotozoal agents” (Merck & Co., Inc., priority 1999, dated 2000)
